Data on 1 molecule can be found in US20060062736A1, “Therapeutic foam” (priority 2003, published 2006).

SMILES strings stand for the structures.

The nature of this data set: In vitro absorption of foam/gas in fresh human venous blood. The following applies: 0.5 ml aliquot into 20 ml stirred blood. Format: in vitro ADME. Here is the method: In vitro experiments were conducted to determine the absorption of foam made with different gases in fresh human venous blood.
A 20 ml polypropylene syringe barrel was prepared by puncturing its side wall with a relatively large hypodermic needle to make a hole approximately 1 mm in diameter. This hole was then covered by securing a piece of clear flexible vinyl sheet over it with clear adhesive tape. A small magnetic stirrer element was introduced into the syringe barrel and the plunger then replaced. 20 ml of human venous blood was then with withdrawn in the usual manner from a human subject using the specially prepared syringe fitted with a hypodermic needle.
The hypodermic needle was removed and the syringe then placed on a magnetic stirrer unit so that the magnetic element in the syringe thoroughly agitated the blood. […]
The needle of the 0.5 ml syringe was then introduced through the vinyl sheet on the side wall of the 20 ml syringe. […] It was determined that a distance of 45 intervals on this scale corresponded to an internal volume of in the manometer tubing of approximately 0.5 ml. […]
In this experiment, the air foam test was only observed for a few minutes after tF. However, further experiments have been conducted by the inventors, the results of which are not formally recorded here, involving foam with a percentage of nitrogen. […]

In the case of `O=O` [Oxygen gas, oxygen], the “Absorbed volume at tF 0.5(y − z)/(y − x)” value amounted to 0.46 mL and the “tF (time at which blood column stopped moving)” value amounted to 140 s.
